# Reference: patent US20260224538A1 (Purdue Research Foundation, priority 2023, published 2026)
# Tests used:
# Type in all cases: biochemical
# [1] = target: T1, α-synuclein (α-syn) (Homo sapiens, UniProt P37840); experiment: Thioflavin-T (ThT) fluorescence assay of α-syn fibril formation; settings: for remaining activity at 100 µM: compounds at 100 μM, α-syn 6.25 μM, control 0.25% DMSO, read-out: ThT a-Syn (%), maximum thioflavin T (ThT) intensity in percentage
# T1 construct: purchased rPeptide
# Experimental: (§1) Thioflavin-T (ThT) fluorescence assays. Thioflavin-T (ThT) fluorescence assays were used to monitor fibril formation of recombinant Ap (fragments 1-40 and 1-42), recombinant α-syn, recombinant tau isoform 2N4R, synthetic IAPP, and synthetic TTR peptides treated with BTA and its derivatives. The IAPP ThT assay was performed in 10 mM PBS (pH 7.4) at a final concentration of 10 μM for both IAPP and ThT as published previously. Aβ fragments 1-40 and 1-42 were tested at 7 μM in 10 mM of PBS using ThT at a final concentration of 20 μM. Kinetics of α-syn fibrillization were performed as published previously.^36-37 TTR fragment kinetics of fibril formation were assessed at 10 μM in 100 mM sodium acetate buffer supplemented with 100 mM KCl and 1 mM ethylenediaminetetraacetic acid (EDTA) (pH 4) with 20 μM ThT. The fluorescence emission experiments were performed with the excitation and emission wavelengths set at 440 and 485 nm, respectively, with a Synergy HT multi-mode microplate reader (BioTek, Winooski, VT). Samples were measured in three replicates, and the experiments were repeated three times using at least two different stock solutions. For each time point, arbitrary units of fluorescence were calculated from the mean values normalized against the maximum value in each completed assay. The lag time for each condition was calculated as previously described. All results contained in histograms were presented as mean±SEM. Data were analyzed by the one-way analysis of variance with Dunnett's multiple comparisons between controls and compounds. Differences were considered statistically significant at p<0.05.
# (§2) Compounds with the highest anti-fibrillary activity were tested at 3.125, 6.25, 12.5, 25, 50, and 100 μM to obtain dose-response curves with prepared α-syn and 2N4R tau at 6.25 μM and 6 μM, respectively. Compounds were tested with α-syn using a previously published procedure. Concerning the tau (isoform 2N4R) kinetics of fibril formation, measurements of ThT fluorescence were performed with a solution of the protein diluted to a final concentration of 6 μM in PBS (pH 7.4) supplemented with 1.5 μM heparin, 20 μM ThT, 2.5 mM DTT, and 100 μM compound. Aliquots of the diluted protein solution (100 μL each) were pipetted into the wells of a 96-well plate, and a Teflon ball was added to each well. The plate was incubated at 37° C. with constant shaking at 1,000 rpm in a Tecan Spark plate reader. ThT fluorescence was measured every 15 minutes with excitation and emission wavelengths of 440 nm and 480 nm, and the data were plotted using GraphPad Prism.
# [2] = target: T2, α-syn (Homo sapiens, UniProt P37840); experiment: Photo-induced cross-linking of unmodified proteins (PICUP), α-syn oligomerization; settings: compound 50 μM, molar ratio 1:5 (protein:compound)
# T2 construct: purchased rPeptide
# Experimental: (§3) Photo-induced Cross-linking of Unmodified Proteins (PICUP) Assay. To induce oligomerization by cross-linking, α-syn (from Rpeptide, LLC) and tau isoform 2N4R were diluted in 10 mM phosphate buffer (pH 7.4) to reach a final concentration of 10 μM. Different compounds were added to the protein solution at a final concentration of 50 μM, resulting in a molar ratio of 1:5. To confirm the gradual effect of the compounds on the inhibition of α-syn oligomerization, the compounds were tested at final concentrations of 3.125, 6.25, 12.5, 25, and 50 μM. The controls consisted of samples without light exposition, without Ru(bpy) or ammonium persulfate, and without compound (i.e., 0.125% DMSO). The cross-linking reaction was initiated by the addition of 2 μL of Ru(bpy) (300 μM final concentration) and 2 μL ammonium persulfate (6 mM final concentration). Samples were irradiated immediately. Light exposure was of a one-second duration for α-syn and a three-second duration for tau isoform 2N4R, with a 53 W (120 V) incandescent lamp installed in a homemade dark-box. Each tube contained a final volume of 20 μL. After irradiation, 8.3 μL of Laemmli loading buffer containing 15% β-mercaptoethanol were immediately added to the solution, followed by incubation at 95° C. for 10 minutes. The cross-linked samples were separated on a 16% SDS-PAGE gel and visualized by Coomassie blue staining.
# [3] = target: T3, tau isoform 2N4R (Homo sapiens, UniProt P10636); experiment: PICUP, tau isoform 2N4R oligomerization; settings: compound 50 μM
# T3 construct: made in house; host or cells: E. coli BL21(DE3)
# T3 sequence (P10636 1-441 isoform P10636-8): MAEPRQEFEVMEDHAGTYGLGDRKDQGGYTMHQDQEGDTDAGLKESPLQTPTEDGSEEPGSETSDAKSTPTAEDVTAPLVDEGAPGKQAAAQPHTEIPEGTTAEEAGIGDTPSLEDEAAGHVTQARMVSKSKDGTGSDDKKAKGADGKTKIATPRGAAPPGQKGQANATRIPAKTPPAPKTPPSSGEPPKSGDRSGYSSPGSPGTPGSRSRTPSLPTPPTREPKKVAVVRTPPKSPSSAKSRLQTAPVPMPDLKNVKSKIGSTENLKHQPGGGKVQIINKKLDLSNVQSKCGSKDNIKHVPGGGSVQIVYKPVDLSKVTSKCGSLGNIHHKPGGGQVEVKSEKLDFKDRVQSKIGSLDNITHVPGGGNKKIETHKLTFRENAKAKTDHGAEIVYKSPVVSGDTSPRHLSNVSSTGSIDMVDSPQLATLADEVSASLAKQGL
# Experimental: (§4) The bacterial expression plasmid consisting of the vector pRK172 carrying a cDNA encoding the human Tau 2N4R isoform was obtained from Dr. David Eliezer (Weill Cornell Medicine, New York, NJ). For protein expression, E. coli BL21(DE3) cells were transformed with the plasmid and grown in LB media supplemented with ampicillin (100 μg/mL). Protein over-expression was induced by the addition of 1 mM IPTG for 4 hours at 37° C., and cells were pelleted by centrifugation at 6,000 g for 15 minutes at 4° C. The cells were resuspended in lysis buffer (20 mM MES, 400 mM NaCl, 0.2 mM MgCl2, 1 mM EGTA, protease inhibitor cocktail (P8340, Sigma Aldrich), 0.25 mg/mL lysozyme, and 1 μg/mL DNase 1, pH 6.8) and lysed by a French press cell disruptor at 4° C., after which the lysate was boiled for 20 minutes. Denatured proteins were pelleted by centrifugation at 30,000 g for 30 minutes at 4° C., and the supernatant was dialyzed overnight against cation exchange buffer (20 mM MES, 50 mM NaCl, 1 mM MgCl2, 1 mM EGTA, 2 mM DTT, 0.1 mM PMSF, pH 6.8). The dialysate was loaded onto a HiPrep SP HP column, and proteins were eluted with a linear gradient ranging from 50 mM to 1 M NaCl. Fractions containing tau isoform 2N4R were pooled, and the resulting protein solution was dialyzed against PBS (pH 7.4) and stored at −80° C.
# as §3
# [4] = target: T4, islet amyloid polypeptide (IAPP) (Homo sapiens, UniProt P10997); experiment: ThT fluorescence assay of IAPP fibril formation; settings: screen on prone-to-aggregate proteins (FIG. 2A, FIG. 4A); IAPP 10 μM
# T4 construct: Human islet amyloid polypeptide (IAPP) was procured from AnaSpec; purchased AnaSpec; host or cells: synthetic peptide
# T4 sequence (P10997 34-70 limits assumed): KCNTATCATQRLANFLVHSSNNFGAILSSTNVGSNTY
# Experimental: as §1, with “All results contained in histograms were presented as mean±SEM. Data were analyzed by the one-way analysis of variance with Dunnett's multiple comparisons between controls and compounds. Differences were considered statistically significant at p<0.05.” left out
# [5] = target: T5, transthyretin fragment peptide (TTR81-127) (Homo sapiens, UniProt P02766); experiment: ThT fluorescence assay of TTR81-127 fibril formation; settings: for remaining activity at 100 µM: compounds at 100 μM, TTR81-127 10 μM, control 0.25% DMSO, read-out: ThT TTR81-127 (%), maximum thioflavin T (ThT) intensity in percentage
# T5 construct: TTR fragment 81-127 was obtained from AnaSpec; purchased AnaSpec; host or cells: synthetic peptide
# Experimental: as §1
# [6] = target: T6, Aβ1-42 (Homo sapiens, UniProt P05067); experiment: ThT fluorescence assay of Aβ1-42 fibril formation; settings: screen on prone-to-aggregate proteins (FIG. 2A, FIG. 4A); Aβ 7 μM
# T6 construct: α-syn, Aβ1-40, Aβ1-42 were procured from rPeptide; purchased rPeptide
# T6 sequence (P05067 672-713 limits assumed): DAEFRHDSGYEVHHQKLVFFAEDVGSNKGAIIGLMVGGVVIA
# Experimental: as §1
# [7] = target: T7, Aβ1-40 (Homo sapiens, UniProt P05067); experiment: ThT fluorescence assay of Aβ1-40 fibril formation; settings: screen on prone-to-aggregate proteins (FIG. 4A); Aβ 7 μM
# T7 construct: α-syn, Aβ1-40, Aβ1-42 were procured from rPeptide; purchased rPeptide
# T7 sequence (P05067 672-711 limits assumed): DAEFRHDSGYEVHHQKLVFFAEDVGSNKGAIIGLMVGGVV
# Experimental: as §1, with “All results contained in histograms were presented as mean±SEM. Data were analyzed by the one-way analysis of variance with Dunnett's multiple comparisons between controls and compounds. Differences were considered statistically significant at p<0.05.” left out
# [8] = target: T8, TTR101-125 (Homo sapiens, UniProt P02766); experiment: ThT fluorescence assay of TTR101-125 fibril formation; settings: screen on prone-to-aggregate proteins (FIG. 4A)
# T8 construct: TTR fragments 1-25, 26-50, 51-75, 76-100, 81-105, 101-125, and 101-125 were obtained from GenScript; purchased GenScript; host or cells: synthetic peptide
# Experimental: as §1
# [9] = target: T2, α-syn; experiment: Photo-induced cross-linking of unmodified proteins (PICUP), α-syn oligomerization; settings: compound 200 μM
# [10] = target: T3, tau isoform 2N4R; experiment: ThT kinetics of tau isoform 2N4R fibril formation; settings: tau 6 μM, compound 100 μM
# Experimental: as §4, §2
# [11] = screen on prone-to-aggregate proteins (FIG. 2A, FIG. 4A)
remaining activity at 100 µM [1],"thioflavin T fluorescence intensity, α-syn [1, 11]","thioflavin T fluorescence intensity, IAPP [4]",remaining activity at 100 µM [5],"thioflavin T fluorescence intensity, TTR81-127 [5, 11]","thioflavin T fluorescence intensity, Aβ1-42 [6]","thioflavin T fluorescence intensity, Aβ1-40 [7]","thioflavin T fluorescence intensity, TTR101-125 [8]",lag time of tau isoform 2N4R fibril formation [10],SMILES,α-syn oligomer formation (PICUP) [2],tau isoform 2N4R oligomer formation (PICUP) [3],α-syn oligomer formation (PICUP) at high concentration [9],production of tau isoform 2N4R fibrils (ThT kinetic aggregation curves) [10]
> 100%,greater than 100%,greater than 100%,> 100%,greater than 100%,greater than 100%,greater than 100%,greater than 100%,,"Clc1nc(Cl)nc(Nc2ccc(-c3nc4ccccc4s3)cc2)n1 [Compound 5, N-[4-(1,3-benzothiazol-2-yl)phenyl]-4,6-dichloro-1,3,5-triazin-2-amine]",high molecular weight bands representing the oligomeric species,high molecular weight bands representing the oligomeric species,,
16.4 ± 7.8%,,,73.4 ± 1.9%,,,,,delayed the lag time,"CCNC(=O)N(C(=O)NCC)c1nsc2ccc([N+](=O)[O-])cc12 [Compound 13, N-ethyl-1-[(ethylcarbamoyl)(5-nitro-1,2-benzothiazol-3-yl)amino]formamide]",,,reduced substantially the oligomer formation,reduced the production of tau isoform 2N4R fibrils
